Experimental data taken from paper PMC5513091, “A novel Alzheimer’s disease drug candidate targeting inflammation and fatty acid metabolism” (Alzheimer's Research & Therapy, 2017).
pEC50: −log10 of the molar value.

Columns and labels:
[1] = system: HT22 cells expressing the brain-derived neurotrophic factor (BDNF) receptor transmembrane receptor kinase B; experiment: BDNF-like activity (rescue from serum starvation); type: cell-based; conditions: Mus musculus, HT-22, read-out: Half-maximal effective concentration, BDNF-like activity
Procedure: (§1) The various phenotypic screening assays were conducted as previously described. Briefly, HT-22, primary cortical neurons, or MC65 was plated and exposed to the different environmental stresses. Cells were treated with varying concentrations of CAD-31, and half-maximal effective concentration (EC50) was determined on the basis of cell viability.
(§2) • An assay that mimics the dramatic loss of neurotrophic support in the old brain is the trophic factor withdrawal assay. Primary embryonic day 18 cortical cells are plated at low density in serum-free medium. At low density, the cells die within 2 days; they can be rescued by combinations of neurotrophic growth factors, but not by one alone ([19] and unpublished data). […] BDNF is a molecule that is also involved in promoting memory and neurogenesis and is reduced in the brain with age and in AD, as well as in other neurological disorders. BDNF has long been considered a drug target for AD [23]. […] A reduction in GSH is a common denominator of old age and essentially all chronic central nervous system (CNS) diseases. J147 and CAD-31 both effectively reduce oxidative stress, with EC50 of 6 nM and 20 nM, respectively. • CAD-31 also prevents loss of energy metabolism that leads to neuron cell death in an in vitro ischemia model. […]

protein kinases = experiment: Protein Kinase Screen; type: binding
Text: (§3) Before undertaking animal experiments, it is important to determine if a new drug candidate has a chance for further clinical development by determining its pharmacological properties of bioavailability and brain penetrance as well as predicted safety.

[2] = system: hippocampal gene expression; experiment: Whole-transcriptome RNA-sequencing of hippocampus; type: in vivo, mice
Procedure: RNA was isolated from the hippocampus using the RNeasy Plus Universal Mini Kit (QIAGEN, Valencia, CA, USA). RNA sequencing (RNA-seq) libraries were prepared using the TruSeq Stranded mRNA Sample Prep Kit (Illumina, San Diego, CA, USA) according to the manufacturer’s instructions. Briefly, polyadenylation RNA was selected using oligo(dT) beads. Messenger RNA was then fragmented and reverse-transcribed. Complementary DNA (cDNA) was end-repaired, adenylated, and ligated with Illumina adapters with indexes. Adapter-ligated cDNA was then amplified. Libraries were pooled and sequenced single-end 50 bp on the HiSeq 2500 platform (Illumina). Sequencing reads were quality-tested using FastQC and aligned to the mm10 mouse genome using STAR Aligner version 2.4k. Mapping was carried out using default parameters (up to ten mismatches per read and up to nine multimapping locations per read). Raw gene expression was quantified across all gene exons by RNA-seq using the top-expressed isoform as a proxy for gene expression, and differential gene expression was carried out using the edge R package version 3.6.8, using replicates to compute within-group dispersion. p Values are adjusted to control the false discovery rate (FDR) by the method of Benjamini and Hochberg. Differentially expressed genes were defined as having an FDR <0.05 and a log2 fold change >1. […]

rat hippocampal neurons = experiment: Aβ toxicity (extracellular); type: cell-based; conditions: Hippocampal neuron, read-out: Half-maximal effective concentration, Aβ toxicity (extracellular)
Acute Toxicity (PO) = type: in vivo
[3] = system: panel of 60 brain ion channels, transporters, and receptors; experiment: Lead Profile Screen; type: binding
Text: as §3

HT22 = experiment: In vitro ischemia; type: cell-based; conditions: Mus musculus, HT-22, read-out: Half-maximal effective concentration, In vitro ischemia
Procedure: as §1, §2

ACC-1 = experiment: Immunoblotting of hippocampal tissue; type: in vivo, mice; conditions: hippocampus
Procedure: (§4) Hippocampal tissue samples were homogenized in 10 volumes of radioimmunoprecipitation assay (RIPA) lysis buffer (50 mM Tris, pH 7.5, 150 mM NaCl, 0.1% SDS, 0.5% deoxycholate, and 1% Nonidet P-40) containing a cocktail of protease and phosphatase inhibitors [[…] each of pepstatin A, aprotinin, phosphoramidon, and leupeptin; 0.5 mM 4-(2-aminoethyl)benzenesulfonyl fluoride hydrochloride; 1 mM ethylene glycol-bis(β-aminoethyl ether)-N,N,N′,N′-tetraacetic acid; 5 mM fenvalerate; and 5 mM cantharidin]. Samples were sonicated (2 × 10 seconds) and centrifuged first at 10,000 × g for 10 minutes and then at 100,000 × g for 60 minutes at 4 °C. The 100,000 × g pellet was taken up either in 6 M guanidine for Aβ analysis or in SDS sample buffer for Western blot analysis. Protein concentrations in the cell extracts were determined using a bicinchoninic acid protein assay (Pierce Biotechnology, Rockford, IL, USA). Equal amounts of protein were solubilized in 2.5× SDS sample buffer, separated on 12% SDS-polyacrylamide gels, transferred to Immobilon-P (EMD Millipore, Billerica, MA, USA), and immunoblotted with the antibodies indicated in the Materials subsection above. For Western blot experiments, protein levels were normalized to actin levels. An unpaired t test was performed to compare two groups at a single time point. When comparing multiple groups, one-way analysis of variance (ANOVA) followed by Tukey’s post hoc test was used. All statistical analysis was conducted using GraphPad InStat software.

ubiquitinated proteins = experiment: Immunoblotting of hippocampal tissue; type: in vivo, mice; conditions: hippocampus
Procedure: as §4

[4] = system: autophagy markers LC3 and P62; experiment: Immunoblotting of hippocampal tissue; type: in vivo, mice; conditions: data not shown
Procedure: as §4

DCX = experiment: Immunoblotting of hippocampal tissue; type: in vivo, mice; conditions: hippocampus
Procedure: as §4

CYP 1A2 = CYP 1A2 (Homo sapiens, UniProt P05177); experiment: CYP inhibition; type: in vitro ADME
CYP 1A2, sequence (P05177 whole entry): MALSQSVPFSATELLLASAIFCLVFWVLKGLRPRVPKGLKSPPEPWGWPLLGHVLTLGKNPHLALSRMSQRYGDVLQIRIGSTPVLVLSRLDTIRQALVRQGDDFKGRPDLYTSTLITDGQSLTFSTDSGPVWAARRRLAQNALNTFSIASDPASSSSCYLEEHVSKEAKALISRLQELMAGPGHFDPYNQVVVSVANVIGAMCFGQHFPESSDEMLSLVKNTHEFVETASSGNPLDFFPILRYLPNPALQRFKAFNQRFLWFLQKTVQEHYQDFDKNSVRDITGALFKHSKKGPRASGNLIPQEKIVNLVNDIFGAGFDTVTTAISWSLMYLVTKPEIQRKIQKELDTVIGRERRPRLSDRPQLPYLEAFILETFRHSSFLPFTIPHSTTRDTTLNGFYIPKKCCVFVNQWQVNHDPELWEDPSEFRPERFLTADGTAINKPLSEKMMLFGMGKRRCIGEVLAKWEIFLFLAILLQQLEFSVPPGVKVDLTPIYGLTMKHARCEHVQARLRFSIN

With `Cc1ccc(N(/N=C/c2cccc(OC(F)(F)F)c2)C(=O)C(F)(F)F)c(C)c1` [CAD-31] as the compound, how does the pEC50 [1] read?
The pEC50 was 7.02.

And the “interaction with known protein kinases” value (protein kinases; 10 μM)?
The value was “did not interact”.

What about the pEC50 (protein kinases; all kinases) of the same compound?
The pEC50 was under 5.00.

What about the “number of significant genes changed” value ([2]; AD model, CAD-31-treated vs AD) of the same compound?
Its value is 730.

And the “number of significant genes changed” value ([2]; WT model, CAD-31-treated vs control)?
The value was 29.

What about the pEC50 (rat hippocampal neurons) of the same compound?
Its pEC50 is 7.57.

And the acute toxicity (Acute Toxicity (PO))?
The acute toxicity was “no sign of acute toxicity”.

What about the “Oral acute toxicity LD50” value (Acute Toxicity (PO); observation one week post gavage) of the same compound?
The value was over 2000 mg/kg.

And the “interaction with proteins in the lead profile screen panel” value ([3]; 10 μM, 60 brain ion channels, transporters, and receptors)?
Its value is “did not interact”.

And the pEC50 ([3]; all targets of the panel)?
The pEC50 was under 5.00.

What about the EC50 at 10 µM (Micronucleus assay) of the same compound?
The EC50 at 10 µM was over 10000 nM.

What about the “activity in the micronucleus assay” value (Micronucleus assay; 10 μM) of the same compound?
The value was “showed no sign of acute toxicity or activity”.

What about the pEC50 (HT22) of the same compound?
Its pEC50 is 7.33.

What about the “phosphorylation of ACC-1” value (ACC-1; AD mice) of the same compound?
Its value is “greatly increases the depressed level of phosphorylation in AD mice”.

And the “total amount of ACC-1 protein” value (ACC-1; AD mice)?
The value was “not significantly reduced”.

What about the “phosphorylation of ACC-1” value (ACC-1; WT mice) of the same compound?
Its value is “decreases the phosphorylation of ACC-1 in WT mice”.

What about the RIPA-insoluble ubiquitinated proteins (ubiquitinated proteins; 13-month-old WT and AD mice) of the same compound?
The RIPA-insoluble ubiquitinated proteins was “reduced”.

What about the “ubiquitinated proteins in the soluble fraction” value (ubiquitinated proteins; data not shown) of the same compound?
Its value is “unchanged”.

What about the “expression of the autophagy markers LC3 and P62” value [4] of the same compound?
The value was “did not, however, alter the expression”.

What about the “expression of the NPC marker DCX” value (DCX) of the same compound?
Its value is “increased the expression of the NPC marker DCX in the hippocampus”.

And the EC50 at 10 µM (CYP 1A2)?
Its EC50 at 10 µM is over 10000 nM.
